Values of other authors in patent publication US20210400979A1, “ANTI-VIRAL FACE MASK AND FILTER MATERIALS” (priority 2020, published 2021).

Tests used:
[1] = test system: RTCs of SARS-CoV (RNA-synthesizing activity); settings: RTCs isolated from SARS-CoV infected cells, various Zn^2+ concentrations (FIG. 13A)

Row | Molecule | RNA-synthesizing activity of the RTCs of the virus [1] | water solubility (in words)
1 | [Zn+2] [Zn^2+] | efficiently inhibits | 
2 | zinc picolinate |  | moderately water soluble
